Experimental data taken from patent publication US10155971B2, “Rapid antibiotic susceptibility testing system based on bacterial immobilization using gelling agent, antibiotic diffusion and tracking of single bacterial cells” (SNU R & DB FOUNDATION, priority 2012, dated 2018).
≈ marks a conversion by molar mass, not a printed value.

Tests used:
P. aeruginosa ATCC 27853 = conditions: CLSI range; cited from earlier work
[1] = test system: Pseudomonas aeruginosa ATCC 27853; assay: Rapid antibiotic susceptibility test (RAST) in microfluidic agarose channel (MAC), MIC by single-cell time-lapse imaging; assay type: cell-based; conditions: P. aeruginosa ATCC 27853, RAST method in MAC; for MIC: Pseudomonas aeruginosa, ATCC27853
Experimental: (§1) Radial microfluidic channels with six branches were formed using soft-lithography. First, SU8 mold (2015 SU8, Microchem) was fabricated by employing photolithography. Polydimethylsiloxane (PDMS, Dow Corning) was mixed with a curing agent (10:1, w/w) and poured into the SU8. After baking at 150° C. for 10 min, the PDMS was peeled off and attached to the PDMS-coated slide glass by O2 plasma treatment to obtain a radial microfluidic channel chip capable of testing antibiotics having five concentrations and a control with no antibiotic. There were six main channels that carried one side-branched channel each. […] A mixture of agarose and bacteria was allowed to flow in the main channels, and the bioactive agents were allowed to flow in the respective side-branched channels. In the middle of each main channel, there were anchors in the form of micro-sized posts for forming an interface between the agarose and each of the bioactive agents. The posts blocked the agarose from flowing into the side-branched channel. The sizes of the posts and the pitches between the posts were determined by mathematical calculations. For appropriate hydrophobicity to occur in the channel, the channel was prepared one day before experiment to increase the surface tension after O2 plasma treatment. Agarose is solidified at a temperature lower than 36° C. The cultured bacteria were mixed with 2% agarose (1:3, v/v) at 45° C. and immediately injected into the microfluidic channels. The agarose-bacteria mixture was solidified at 25° C. for 1 min. The obtained microfluidic agarose channel (MAC) chip was placed on a hot plate and incubated at 37° C. To provide nutrients, liquid CAMHB medium was supplied through the side-branched channels. The growth of the bacteria was monitored using a microscope. Bacterial growth was not inhibited and could be clearly monitored in the MAC system. Bacterial cell images were taken with a CCD camera; the images were then processed to determine the MIC values of the antibiotics. The image data were transformed into digital data using an image processing program, which is coded in Matlab. For the calculations, RGB images were transformed into grey formatted images. The background data were eliminated to obtain sharp data without noise. Then, the contrast was enhanced to change the processed images into binary format images. […] The Matlab program calculated the areas that were occupied by each bacterium. A longer incubation time allowed each bacterium to grow and occupy more area. The occupied areas were measured using the image processing program. 200 μl of Mueller-Hinton agar including 5×10^8 cells/ml bacterial cells and 600 μl of 2% liquid agarose at 45° C. was mixed thoroughly by a vortex generator (vortex Genie 2). The agarose-bacteria mixture was placed in the main channels of the microfluidic channel system using a syringe pump (KdScientific) at stable flow rate (2 ml/hr) to prevent bursting into the side-branched channels. After the liquid agarose was solidified at room temperature to immobilize the bacteria in the main channels, the MHA medium containing the antibiotic was injected into the side-branched channels using the syringe pump at a rate of 10 μl/hr to diffuse into the agarose-bacteria mixture. Bacterial growth was monitored by using a microscope (40×) and a CCD camera. Images of bacterial growth were taken every hour and were analyzed by using the image processing program. […] The obtained MIC values were verified by the conventional method (microdilution method) and compared with the MIC data of the CLSI. […] The images of the left group are RGB images before processing, and the images of the right group are images after processing for clear observation. After image processing, the bacteria that occupied the area were measured and plotted on the graph for different concentrations of gentamicin according to the incubation time. […] The MIC values were in the MIC ranges of the CLSI data.

[2] = test system: Staphylococcus aureus ATCC 29213; assay: as above; assay type: cell-based; conditions: S. aureus ATCC 29213, RAST method in MAC; for MIC: Staphylococcus aureus, ATCC29213
Experimental: as §1

S. aureus ATCC 29213 = conditions: CLSI range; cited from earlier work
E. coli ATCC 25922 = conditions: CLSI range; cited from earlier work
[3] = test system: Escherichia coli ATCC 25922; assay: Rapid antibiotic susceptibility test (RAST) in microfluidic agarose channel (MAC), MIC by single-cell time-lapse imaging; assay type: cell-based; conditions: E. coli ATCC 25922, RAST method in MAC; for MIC: Escherichia coli, ATCC25922
Experimental: Radial microfluidic channels with six branches were formed using soft-lithography. First, SU8 mold (2015 SU8, Microchem) was fabricated by employing photolithography. Polydimethylsiloxane (PDMS, Dow Corning) was mixed with a curing agent (10:1, w/w) and poured into the SU8. After baking at 150° C. for 10 min, the PDMS was peeled off and attached to the PDMS-coated slide glass by O2 plasma treatment to obtain a radial microfluidic channel chip capable of testing antibiotics having five concentrations and a control with no antibiotic. There were six main channels that carried one side-branched channel each. […] A mixture of agarose and bacteria was allowed to flow in the main channels, and the bioactive agents were allowed to flow in the respective side-branched channels. In the middle of each main channel, there were anchors in the form of micro-sized posts for forming an interface between the agarose and each of the bioactive agents. The posts blocked the agarose from flowing into the side-branched channel. The sizes of the posts and the pitches between the posts were determined by mathematical calculations. For appropriate hydrophobicity to occur in the channel, the channel was prepared one day before experiment to increase the surface tension after O2 plasma treatment. Agarose is solidified at a temperature lower than 36° C. The cultured bacteria were mixed with 2% agarose (1:3, v/v) at 45° C. and immediately injected into the microfluidic channels. The agarose-bacteria mixture was solidified at 25° C. for 1 min. The obtained microfluidic agarose channel (MAC) chip was placed on a hot plate and incubated at 37° C. To provide nutrients, liquid CAMHB medium was supplied through the side-branched channels. The growth of the bacteria was monitored using a microscope. Bacterial growth was not inhibited and could be clearly monitored in the MAC system. Bacterial cell images were taken with a CCD camera; the images were then processed to determine the MIC values of the antibiotics. The image data were transformed into digital data using an image processing program, which is coded in Matlab. For the calculations, RGB images were transformed into grey formatted images. The background data were eliminated to obtain sharp data without noise. Then, the contrast was enhanced to change the processed images into binary format images. […] The Matlab program calculated the areas that were occupied by each bacterium. A longer incubation time allowed each bacterium to grow and occupy more area. The occupied areas were measured using the image processing program. […] Bacterial growth was monitored by using a microscope (40×) and a CCD camera. Images of bacterial growth were taken every hour and were analyzed by using the image processing program. […]

[4] = test system: P. aeruginosa ATCC 27853 biofilm; assay: Antibiotic susceptibility of biofilms in the MAC system; assay type: cell-based, Pseudomonas aeruginosa; conditions: biofilm formation by 4 hr aging in the MAC system

Row | Compound | MIC, CLSI (P. aeruginosa ATCC 27853) | MIC [1] | MIC [2] | MIC, CLSI (S. aureus ATCC 29213) | MIC, CLSI (E. coli ATCC 25922) | MIC [3] | MIC value after biofilm formation [4] | MIC, RAST [1] | MIC, RAST [2] | MIC, RAST [3]
1 | NCC[C@H](O)C(=O)N[C@@H]1C[C@H](N)[C@@H](O[C@H]2O[C@H](CN)[C@@H](O)[C@H](O)[C@H]2O)[C@H](O)[C@H]1O[C@H]1O[C@H](CO)[C@@H](O)[C@H](N)[C@H]1O [Amikacin] | 1 to 4 µg/mL | 4 µg/mL (≈ 6.83 µM) | 4 µg/mL (≈ 6.83 µM) | 1 to 4 µg/mL | 0.5 to 4 µg/mL | 4 µg/mL (≈ 6.83 µM) | – | – | – | –
2 | CCn1cc(C(=O)O)c(=O)c2cc(F)c(N3CCNCC3)cc21 [Norfloxacin] | 1 to 4 µg/mL | 2 µg/mL (≈ 6.26 µM) | 0.5 µg/mL (≈ 1.57 µM) | 0.5 to 2 µg/mL | 0.03 to 0.12 µg/mL | 0.03 µg/mL (≈ 0.0939 µM) | 32 µg/mL (≈ 100 µM) | – | – | –
3 | CN(C)[C@@H]1C(O)=C(C(N)=O)C(=O)[C@@]2(O)C(O)=C3C(=O)c4c(O)cccc4[C@@](C)(O)[C@H]3C[C@@H]12 [Tetracycline] | – | 32 µg/mL (≈ 72 µM) | 0.5 µg/mL (≈ 1.13 µM) | – | – | 1 µg/mL (≈ 2.25 µM) | – | – | – | –
4 | gentamicin [Geninmycin] | 0.5 to 2 µg/mL | – | – | 0.12 to 1 µg/mL | 0.25 to 1 µg/mL | – | – | 2 µg/mL | 1 µg/mL | 1 µg/mL
